IC50 data for 20 molecules are collected here from US20230031406A1, “COMPOUNDS AND COMPOSITIONS FOR TREATING CONDITIONS ASSOCIATED WITH NLRP ACTIVITY” (Novartis AG, priority 2018, published 2023).

The test system of the assay is PMA-differentiated THP-1 cells. The assay can be described thus: IL-1β production in PMA-differentiated THP-1 cells stimulated with gramicidin (hTHP-1 assay containing 2% fetal bovine serum; Procedures 1 and 2). It is filed as cell-based, human. As to conditions: 2% fetal bovine serum. In outline: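 PMA 20 ng/ml 16-18 h → trypsinise → 50,000 cells/well, RPMI/2% FBS; cpd 1 h (11-pt, 100–0.0017 μM; DMSO 0.37%); gramicidin 5 μM, 2 h; spin; supernatant IL-1β via HTRF.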

Where [1] appears, read: Table B2, class symbols, read-out: hTHP-1 IC50.
[2] abbreviates: Table B3, hTHP-1 assay, class symbols, read-out: IC50.
The mark [3] stands for this setting: Table B4, class symbols, read-out: hTHP-1 IC50.
Where [4] appears, read: Table B1, class symbols, read-out: Average IC50 of compounds in hTHP-1 assay: hTHP-1 IC50.
[5] abbreviates: Homo sapiens, THP-1, Table B3, hTHP-1 assay, class symbols, read-out: IC50.
[6] abbreviates: Homo sapiens, THP-1, Table B3, hTHP-1 assay, numeric values, read-out: IC50.
Where [7] appears, read: Homo sapiens, THP-1, Table B2, class symbols, read-out: hTHP-1 IC50.

The structures appear in SMILES notation. Like-named read-outs stand apart in the source and are kept apart here.

As for `CCC1CCc2c1nc1c(c2NC(=O)N=S(N)(=O)c2cnc(C(C)(C)O)s2)CCC1` (stereo not drawn) [Compound 662e], the IC50 under setting [1] is 1 to 5 µM.

For the molecule `CC1(C)CCc2c1nc1c(c2NC(=O)N=S(N)(=O)c2nn(C(F)F)cc2F)CCC1` (single isomer, unassigned) [Example 721, (R) or (S)-1-(difluoromethyl)-N′-((3,3-dimethyl-1,2,3,5,6,7-hexahydrodicyclopenta[b,e]pyridin-8-yl)carbamoyl)-4-fluoro-1H-pyrazole-3-sulfonimidamide], the IC50 under setting [2] was 0.04 to 0.2 µM.

On to `CCC1CCc2c1nc1c(c2NC(=O)N=S(N)(=O)c2ccn(C(F)F)n2)CCC1` (stereo not drawn) [Compound 668, 1-(Difluoromethyl)-N′-((3-ethyl-1,2,3,5,6,7-hexahydrodicyclopenta[b,e]pyridin-8-yl)carbamoyl)-1H-pyrazole-3-sulfonimidamide], for which, under setting [1], the IC50 lay within 5 to 30 µM.

As to `CCn1cc(F)c(S(N)(=O)=NC(=O)Nc2c3c(nc(C(F)(F)F)c2-c2ccccc2F)CCC3)n1` (single isomer, unassigned) [Example 780, (S) or (R)-1-ethyl-4-fluoro-N′-((3-(2-fluorophenyl)-2-(trifluoromethyl)-6,7-dihydro-5H-cyclopenta[b]pyridin-4-yl)carbamoyl)-1H-pyrazole-3-sulfonimidamide], under setting [3], the IC50 was 0.2 to 1 µM.

For the molecule `CC(C)(O)c1ncc(S(N)(=O)=NC(=O)Nc2c3c(nc4c2CCC42CC2)CCC3)s1` (single isomer, unassigned) [Compound 136b, (R) or (S)-2-(2-hydroxy-propan-2-yl)-N′-((1′,5′,6′,7′-tetrahydro-2′H-spiro[cyclopropane-1,3′-dicyclopenta[b,e]pyridin]-8′-yl)carbamoyl)thiazole-5-sulfonimidamide], the IC50 under setting [4] was in the range of 0.04 to 0.2 µM.

Take `CC1CCc2c1nc1c(c2NC(=O)N=S(N)(=O)c2sc(C(C)(C)O)nc2CO)CCC1` (stereo not drawn) [Compound 168, 4-(hydroxymethyl)-2-(2-hydroxypropan-2-yl)-N′-((3-methyl-1,2,3,5,6,7-hexahydrodicyclopenta[b,e]pyridin-8-yl)carbamoyl)thiazole-5-sulfonimidamide]: under setting [4], the IC50 was 0.2 to 1 µM.

Turning to `Cc1c(CC(F)(F)F)nc2c(c1NC(=O)N=S(N)(=O)c1nn(C(F)F)cc1F)CCC2` (stereo not drawn) [Example 617, 1-(Difluoromethyl)-4-fluoro-N′-((3-methyl-2-(2,2,2-trifluoroethyl)-6,7-dihydro-5H-cyclopenta[b]pyridin-4-yl)carbamoyl)-1H-pyrazole-3-sulfonimidamide], under setting [5], the IC50 is 5 to 30 µM.

As to `Cc1c(C2(C)CC2)nc2c(c1NC(=O)N=S(N)(=O)c1cnc(C(C)(O)CO)s1)CCC2` (stereo not drawn) [Example 606, 2-(1,2-Dihydroxypropan-2-yl)-N′-((3-methyl-2-(1-methylcyclopropyl)-6,7-dihydro-5H-cyclopenta[b]pyridin-4-yl)carbamoyl)thiazole-5-sulfonimidamide], the IC50 under setting [6] is over 30 µM.

In the case of `CC(C)(O)c1cc(F)c(S(N)(=O)=NC(=O)Nc2c3c(nc(C4CC4)c2C2CC2)CCC3)s1` (stereo not drawn) [Compound 727], the IC50 under setting [7] was in the range of 0.2 to 1 µM.

For `NS(=O)(=NC(=O)Nc1c2c(nc3c1CCC31CC1)CCC2)c1nn(C(F)F)cc1F` (stereo not drawn) [Example 569, 1-(Difluoromethyl)-4-fluoro-N′-((1′,5′,6′,7′-tetrahydro-2′H-spiro[cyclopropane-1,3′-dicyclopenta[b,e]pyridin]-8′-yl)carbamoyl)-1H-pyrazole-3-sulfonimidamide], the IC50 under setting [5] lay within 0.2 to 1 µM.

For `CCn1cc(F)c(S(N)(=O)=NC(=O)Nc2c(C)c(C(F)(F)F)nc3c2CCC3)n1` (single isomer, unassigned) [Example 649, (R) or (S)-1-ethyl-4-fluoro-N′-((3-methyl-2-(trifluoromethyl)-6,7-dihydro-5H-cyclopenta[b]pyridin-4-yl)carbamoyl)-1H-pyrazole-3-sulfonimidamide], the IC50 under setting [2] lay in the range of 0.04 to 0.2 µM.

Take `Cc1cc(C2CC2)nc(NC(=O)N=S(N)(=O)c2ncc(C(C)(C)O)s2)n1` (single isomer, unassigned) [Compound 185b, (S) or (R)-N′-((4-cyclopropyl-6-methylpyrimidin-2-yl)carbamoyl)-5-(2-hydroxypropan-2-yl)thiazole-2-sulfonimidamide]: the IC50 by setting is: (Homo sapiens, THP-1, Table B1, numeric bounds, read-out: Average IC50 of compounds in hTHP-1 assay: hTHP-1 IC50) over 30 µM; (Homo sapiens, THP-1, Table B2, numeric bounds, read-out: hTHP-1 IC50) over 30 µM.

For the molecule `CC(C)n1cc(F)c(S(N)(=O)=NC(=O)Nc2c3c(nc4c2CCC4)CCC3)n1` (single isomer, unassigned) [Example 786, (S) or (R)-4-fluoro-N′-((1,2,3,5,6,7-hexahydrodicyclopenta [b,e]pyridin-8-yl)carbamoyl)-1-isopropyl-1H-pyrazole-3-sulfonimidamide], under setting [3], the IC50 fell in the range of 5 to 30 µM.

In the case of `CN(C)Cc1nc(C(C)(C)O)sc1S(N)(=O)=NC(=O)Nc1c2c(nc3c1CCC3(C)C)CCC2` (stereo not drawn) [compound 592, N′-((3,3-dimethyl-1,2,3,5,6,7-hexahydrodicyclopenta[b,e]pyridin-8-yl)carbamoyl)-4-((dimethylamino)methyl)-2-(2-hydroxypropan-2-yl)thiazole-5-sulfonimidamide], under setting [6], the IC50 was over 30 µM.

Regarding `Cc1sc(S(N)(=O)=NC(=O)Nc2c3c(nc4c2CCC4)CCC3)cc1C(C)(C)O` (single isomer, unassigned) [Compound 107b, (S) or (R)-N′-((1,2,3,5,6,7-hexahydrodicyclo-penta[b,e]pyridin-8-yl)carbamoyl)-4-(2-hydroxypropan-2-yl)-5-methylthiophene-2-sulfonimidamide], the IC50 under setting [4] lay in the range of 5 to 30 µM.

On to `CC(C)c1nc2c(cc1NC(=O)N=S(N)(=O)c1cnc(C(C)(C)O)s1)CCC2` (stereo not drawn) [Compound 601, 2-(2-Hydroxypropan-2-yl)-N′-((2-isopropyl-6,7-dihydro-5H-cyclopenta[b]pyridin-3-yl)carbamoyl)thiazole-5-sulfonimidamide], for which, under setting [7], the IC50 fell in the range of 5 to 30 µM.

Take `Cc1nc2c(c(NC(=O)N=S(N)(=O)c3cc(C(C)(C)O)cs3)c1C1CC1)CCC2` (single isomer, unassigned) [Compound 623b, (S) or (R)-N′-((3-cyclopropyl-2-methyl-6,7-dihydro-5H-cyclopenta[b]pyridin-4-yl)carbamoyl)-4-(2-hydroxypropan-2-yl)thiophene-2-sulfonimidamide]: under setting [1], the IC50 was 5 to 30 µM.

Turning to `CCc1csc(S(N)(=O)=NC(=O)Nc2c3c(nc4c2CC[C@H]4C)CCC3)c1` (single isomer, unassigned) [Compound 721b, (R) or (S)-4-Ethyl-N′-(((R)-3-methyl-1,2,3,5,6,7-hexahydrodicyclopenta[b, e]pyridin-8-yl)carbamoyl)thiophene-2-sulfonimidamide], the IC50 under setting [1] was 0.04 to 0.2 µM.

With `CC1CCc2c1nc1c(c2NC(=O)N=S(N)(=O)c2cnn(C(C)C)c2)CCC1` (single isomer, unassigned) [Compound 171d, (S, S) and (S, R) or (R, S) and (R, R)-1-Isopropyl-N′-((3-methyl-1,2,3,5,6,7-hexahydrodicyclopenta [b,e]pyridin-8-yl)carbamoyl)-1H-pyrazole-4-sulfonimidamide], the IC50 (Table B2, numeric bounds, read-out: hTHP-1 IC50) is over 30 µM.

Regarding `CCc1c(C(F)(F)F)nc2c(c1NC(=O)N=S(N)(=O)c1cc(C(C)(C)O)cs1)CCC2` (stereo not drawn) [Compound 609, N′-((3-ethyl-2-(trifluoromethyl)-6,7-dihydro-5H-cyclopenta[b]pyridin-4-yl)carbamoyl)-4-(2-hydroxypropan-2-yl)thiophene-2-sulfonimidamide], under setting [7], the IC50 lay within 1 to 5 µM.

The IC50 is the concentration at which inhibition is half-maximal.
